# Test results reported in patent US8658670B2 (Crestone, Inc., priority 2006, dated 2014).
# Tests used:
# [1] = test system: C. difficile strain ATCC43255 toxin A; experiment: Toxin A production in high cell density stationary phase cultures (ELIFA); format: cell-based; settings: 4 day old stationary phase cultures
# Protocol: C. difficile strain ATCC43255 was grown and maintained anaerobically on CDC anaerobe agar (Remel, Lenexa, Kans.). To test the effect of antibacterial agents on growth, cells were grown anaerobically for 40 h at 35° C. in 96-well brain heart infusion (BHI) broth cultures, with an initial inoculum of 10^6 CFU/mL. To test the effect of antibacterial agents on toxin production at high C. difficile cell densities, the cells were grown anaerobically for 24 h at 35° C. in 96-well brain heart infusion (BHI) broth cultures. Spent medium was then replaced with fresh broth containing MetRS inhibitors and control agents at a concentration range of 0.015-16 μg/mL. After 4 days, growth and cell viability were monitored by optical density measurements at 595 nm and by culture on CDC anaerobe agar, respectively. Culture supernatants were collected, and toxin A was detected by ELIFA (enzyme-linked immuno-flow assay) using an anti toxin A monoclonal antibody (Novus Biologicals, Centennial, Colo.).
# C. difficile = experiment: C. difficile-infected hamster survival study; format: in vivo, hamsters
# Protocol: Animal studies were performed to determine the efficacy of MetRS inhibitors for treating C. difficile-infections. The MetRS inhibitors tested were two compounds of formula (II), 5-[3-((R)-6,8-Dibromo-chroman-4-ylamino)-propylamino]-4H-thieno[3,2-b]pyridine-7-one (both racemic mixture and the R enantiomer) and 5-[3-((R)-8-Bromo-6-chloro-chroman-4-ylamino)-propylamino]-4H-thieno[3,2-b]pyridin-7-one. Also tested was a compound of formula (IV), 2-(3-{3,5-Dibromo-2-[2-(4-methyl-thiazol-5-yl)-ethoxy]-benzylamino}-propylamino)-1H-quinolin-4-one.
# Results were compared to C. difficile-infected hamsters treated with the conventional antibiotic, vancomycin. Infected hamsters were treated with either a solution or suspension of a MetRS inhibitor at 5 to 50 mg/kg or vancomycin at 2.5, 5 or 25 mg/kg. There were eight hamsters per group with the final endpoint of the experiment being survival. Expired hamsters were examined for GI condition.
# [2] = test system: clinical isolates of C. difficile; experiment: Sporulation of C. difficile clinical isolates; format: cell-based
compound,measurement,setting,value
Cc1ncsc1CCOc1c(Br)cc(Br)cc1CNCCCNc1cc(=O)c2sccc2[nH]1,concentration inhibiting toxin production,[1],0.25 µg/mL
"Cl.Cl.Cl.O=c1cc(NCCCNC2CCNc3c(Br)cc(Br)cc32)[nH]c2ccsc12 (stereo not drawn) [5-[3-(6,8-Dibromo-1,2,3,4-tetrahydro-quinolin-4-ylamino)-propylamino]-4H-thieno[3,2-b]pyridin-7-one tri-hydrochloride]",concentration inhibiting toxin production,[1],0.25 µg/mL
"O=c1cc(NCCCNC2CCOc3c(Br)cc(Br)cc32)[nH]c2ccsc12 (stereo not drawn) [5-[3-(6,8-Dibromo-chroman-4-ylamino)-propylamino]-4H-thieno[3,2-b]pyridin-7-one]",concentration inhibiting toxin production,[1],0.25 µg/mL
"O=c1cc(NCCCN[C@@H]2CCOc3c(Br)cc(Br)cc32)[nH]c2ccsc12 [5-[3-((R)-6,8-Dibromo-chroman-4-ylamino)-propylamino]-4H-thieno[3,2-b]pyridine-7-one]",efficacy ranking among tested MetRS inhibitors,"C. difficile; infected hamsters, survival",best efficacy
same,spores (ratio of spores to total cells),"[2]; 0.25×MIC, 96 hours, all strains",< 2%
same,spores (ratio of spores to total cells),"[2]; 0.5×MIC, 96 hours, all strains",< 1%
"Cl.Cl.O=c1cc(NCCCN[C@@H]2CCOc3c(Br)cc(Br)cc32)[nH]c2ccsc12 [R-(+)-5-[3-(6,8-Dibromo-chroman-4-ylamino)-propylamino]-4H-thieno[3,2-b]pyridin-7-one di-hydrochloride]",concentration inhibiting toxin production,[1],0.25 µg/mL
"Cc1ncc([N+](=O)[O-])n1CCO [metronidazole, reference compound]",spores (ratio of spores to total cells),"[2]; subMIC concentrations, all tested strains",up to 100%
"CN[C@H](CC(C)C)C(=O)N[C@H]1C(=O)N[C@@H](CC(N)=O)C(=O)N[C@H]2C(=O)N[C@H]3C(=O)N[C@H](C(=O)N[C@H](C(=O)O)c4cc(O)cc(O)c4-c4cc3ccc4O)[C@H](O)c3ccc(c(Cl)c3)Oc3cc2cc(c3O[C@@H]2O[C@H](CO)[C@@H](O)[C@H](O)[C@H]2O[C@H]2C[C@](C)(N)[C@H](O)[C@H](C)O2)Oc2ccc(cc2Cl)[C@H]1O [vancomycin, reference compound]",survival,"C. difficile; Day 28, vancomycin treatment (2.5, 5 or 25 mg/kg)",0-10%
